Common to all, as to type: cell-based, human
Assay [1] relates to MV-4-11. Put plainly: Proliferation assay A (spheroid assay) MV-4-11. The following applies: MV-4-11 cells, 8 d, AUC of confluence against time, absolute IC50, read-out: (3a) Spheroid assay MV-4-11 (IC50(μM)) Assay A. Put shortly:
(§1)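 Spheroid growth in ultra-low-attachment round-bottom wells (1,500 MV-4-11, 300 MOLM14 or 750 K562 cells), compound titration at 0.3% DMSO, 8 d at 37° C. Confluence imaged every 4 h; AUC from t=0 baseline expressed as % of DMSO control and fitted for absolute IC50.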

Assay [2] has as its system MOLM14. Put plainly: Proliferation assay A (spheroid assay) MOLM14. The following applies: Homo sapiens, MOLM-14, 192 h, MOLM14 cells, 8 d, AUC of confluence against time, absolute IC50; read-out: (3a) Spheroid assay MOLM14 (IC50(μM)) Assay A. An outline of the steps:
as §1

Assay [3] deals with MV-4-11. As to the kind of experiment: Proliferation assay B (spheroid assay) MV-4-11. To be noted: Homo sapiens, MV4-11, 192 h, MV-4-11 cells, confluence at day 8, absolute IC50; read-out: (3b) Spheroid assay MV-4--11 (IC50(μM)) Assay B. Put shortly: (§2)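 IC50 derived from % effect on day-8 imaged confluence, scaled between DMSO-treated cells (high) and 1 μM staurosporine (low), using a variable-slope fit constrained 0-100%. Cells seeded as spheroids in ultra-low-attachment plates and exposed to compound for 8 days, 0.3% DMSO.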

In assay [4] the test system is MOLM14. As to the kind of experiment: Proliferation assay B (spheroid assay) MOLM14. To be noted: MOLM14 cells, confluence at day 8, absolute IC50, read-out: (3b) Spheroid assay MOLM14 (IC50(μM)) Assay B. An outline of the steps: as §2

In the case of `FC(F)(F)Cc1cc2c(N3CCC4(CC(Nc5ccc6cc[nH]c6c5)C4)C3)ncnc2s1` (mixture of isomers) [Compound 311], the IC50 (in general, the concentration that inhibits the measured activity by half) in the assay with MV-4-11 [1] (Homo sapiens, MV4-11, 192 h) is 2.13 µM; with MOLM14 [2], 3.98 µM; with MV-4-11 [3] it was 2.62 µM; in the assay with MOLM14 [4] (Homo sapiens, MOLM-14, 192 h), over 3.75 µM.
As for `O=c1[nH]c2cc(CNC3CCC4(C3)CN(c3ncnc5sc(CC(F)(F)F)cc35)C4)ccc2o1` (single isomer, unassigned) [Compound 58], the 50% inhibitory concentration (IC50) with MV-4-11 [1] came to 0.03 µM; with MV-4-11 [3], 0.11 µM; with MOLM14 [4] (Homo sapiens, MOLM-14, 192 h) it was 0.2 µM.
For the molecule `Cn1c(=O)[nH]c2cc(CNC3CCC4(C3)CN(c3ncnc5sc(CC(F)(F)F)cc35)C4)ccc21` (stereo not drawn) [Compound 54], the concentration for half-maximal inhibition (IC50) with MV-4-11 [1] (Homo sapiens, MV4-11, 192 h) stood at 0.16 µM; in the assay on MOLM14 [2], 0.82 µM; in the assay on MV-4-11 [3], 0.26 µM; in the assay with MOLM14 [4] (Homo sapiens, MOLM-14, 192 h), 1.05 µM.
Take `CNC(=O)c1ccc(NC2CC3(CCN(c4ncnc5sc(CC(F)(F)F)cc45)C3)C2)cc1` (stereo not drawn) [Compound 93]: the half-maximal inhibitory concentration (IC50) was found to be 0.09 µM in the assay on MV-4-11 [1] (Homo sapiens, MV4-11, 192 h); 0.7 µM in the assay on MOLM14 [2]; 0.16 µM in the assay on MV-4-11 [3]; 0.62 µM with MOLM14 [4].
